Experimental data published in ChEMBL document CHEMBL5360567, “Modulating leishmanial pteridine metabolism machinery via some new coumarin-1,2,3-triazoles: Design, synthesis and computational studies” (Eur J Med Chem, 2023).

What was measured:
Leishmania major [1] = test: Antileishmanial activity against Leishmania major promastigotes incubated for 24 hrs measured by alamar blue staining based fluorescence analysis; assay type: functional, organism-based
Leishmania major [2] = test: Antileishmanial activity against Leishmania major amastigotes incubated for 24 hrs measured by alamar blue staining based fluorescence analysis; assay type: functional, organism-based
Leishmania major [3] = test: Potency index, ratio of iC50 for miltefosine IC50 to test compound IC50 for antileishmanial activity against Leishmania major promastigotes; assay type: functional
Leishmania major [4] = test: Reversal of antileishmanial activity against Leishmania major promastigotes assessed as parasite survival at IC50 preincubated with 20 uM folic acid for 1 hr followed by compound incubated for 48 hrs (reference value: 24%); assay type: functional
Leishmania major [5] = test: Reversal of antileishmanial activity against Leishmania major promastigotes assessed as parasite survival at IC50 preincubated with 100 uM folic acid for 1 hr followed by compound incubated for 48 hrs (reference value: 24%); assay type: functional
Leishmania major [6] = test: Reversal of antileishmanial activity against Leishmania major promastigotes assessed as parasite survival at IC50 preincubated with 20 uM folinic acid for 1 hr followed by compound incubated for 48 hrs (reference value: 24%); assay type: functional
Leishmania major [7] = test: Reversal of antileishmanial activity against Leishmania major promastigotes assessed as parasite survival at IC50 preincubated with 100 uM folinic acid for 1 hr followed by compound incubated for 48 hrs (reference value: 24%); assay type: functional
[8] = Cytotoxicity against green monkey Vero cells incubated for 72 hrs by crystal violet staining analysis; assay type: toxicity, cell-based; details: chlorocebus sabaeus
[9] = Selectivity index, ratio of CC50 for green monkey Vero cells to IC50 for antileishmanial activity against Leishmania major amastigotes; assay type: toxicity, cell-based; details: read-out: Ratio CC50/IC50
Leishmania major [10] = test: Antileishmanial activity against Leishmania major amastigotes incubated for 24 hrs measured by alamar blue staining based fluorescence analysis relative to control; assay type: functional
Leishmania major [11] = test: Antileishmanial activity against Leishmania major promastigotes incubated for 24 hrs measured by alamar blue staining based fluorescence analysis relative to control; assay type: functional
Leishmania major [12] = test: Potency index, ratio of IC50 for miltefosine IC50 to test compound IC50 for antileishmanial activity against Leishmania major amastigotes; assay type: functional
Leishmania major [13] = test: Reversal of antileishmanial activity against Leishmania major promastigotes assessed as parasite survival at IC50 preincubated with 20 uM folic acid for 1 hr followed by compound incubated for 48 hrs (reference value: 22%); assay type: functional
Leishmania major [14] = test: Reversal of antileishmanial activity against Leishmania major promastigotes assessed as parasite survival at IC50 preincubated with 100 uM folic acid for 1 hr followed by compound incubated for 48 hrs (reference value: 22%); assay type: functional
Leishmania major [15] = test: Reversal of antileishmanial activity against Leishmania major promastigotes assessed as parasite survival at IC50 preincubated with 20 uM folinic acid for 1 hr followed by compound incubated for 48 hrs (reference value: 22%); assay type: functional
Leishmania major [16] = test: Reversal of antileishmanial activity against Leishmania major promastigotes assessed as parasite survival at IC50 preincubated with 100 uM folinic acid for 1 hr followed by compound incubated for 48 hrs (reference value: 22%); assay type: functional
Leishmania major [17] = test: Reversal of antileishmanial activity against Leishmania major promastigotes assessed as parasite survival at IC50 preincubated with 20 uM folic acid for 1 hr followed by compound incubated for 48 hrs (reference value: 20%); assay type: functional
Leishmania major [18] = test: Reversal of antileishmanial activity against Leishmania major promastigotes assessed as parasite survival at IC50 preincubated with 100 uM folic acid for 1 hr followed by compound incubated for 48 hrs (reference value: 20%); assay type: functional
Leishmania major [19] = test: Reversal of antileishmanial activity against Leishmania major promastigotes assessed as parasite survival at IC50 preincubated with 20 uM folinic acid for 1 hr followed by compound incubated for 48 hrs (reference value: 20%); assay type: functional
Leishmania major [20] = test: Reversal of antileishmanial activity against Leishmania major promastigotes assessed as parasite survival at IC50 preincubated with 100 uM folinic acid for 1 hr followed by compound incubated for 48 hrs (reference value: 20%); assay type: functional
Leishmania tropica [21] = test: Antileishmanial activity against Leishmania tropica promastigotes incubated for 24 hrs measured by alamar blue staining based fluorescence analysis; assay type: functional, organism-based
Leishmania tropica [22] = test: Antileishmanial activity against Leishmania tropica amastigotes incubated for 24 hrs measured by alamar blue staining based fluorescence analysis; assay type: functional, organism-based

Compound	IC50 (Leishmania major [1])	IC50 (Leishmania major [2])	Ratio IC50 (Leishmania major [3])	also measured
CCCCOc1ccc2cc(/C(C)=N/OCCCCCCn3cc(CN4CCCCC4)nn3)c(=O)oc2c1	3.87 µM	4.47 µM	2	
CCCCOc1ccc2cc(C(=O)NCCCCCCn3cc(CN4CCCC4)nn3)c(=O)oc2c1	0.59 µM	0.81 µM	13	Activity (Leishmania major [4]): 76%; Activity (Leishmania major [5]): 84%; Activity (Leishmania major [6]): 83%; Activity (Leishmania major [7]): 94%; CC50 at 72 h [8]: 252 µM; selectivity ratio [9]: 311
CCCCOc1ccc2cc(C(=O)NCCCCCCn3cc(CN4C(=O)CSC4=O)nn3)c(=O)oc2c1	2.27 µM	3.88 µM	3	Activity (Leishmania major [10]): 48%; Activity (Leishmania major [11]): 30%
CCCCOc1ccc2cc(/C(C)=N/OCCCCCCn3cc(CN4CCCC4)nn3)c(=O)oc2c1	0.78 µM	0.99 µM	10	Ratio IC50 (Leishmania major [12]): 8; Activity (Leishmania major [13]): 74%; Activity (Leishmania major [14]): 81%; Activity (Leishmania major [15]): 79%; Activity (Leishmania major [16]): 87%; CC50 at 72 h [8]: 490 µM; selectivity ratio [9]: 496
CCCCOc1ccc2cc(C(=O)NCCCCCCn3cc(CN4CCOCC4)nn3)c(=O)oc2c1	0.4 µM	0.68 µM	20	Activity (Leishmania major [17]): 82%; Activity (Leishmania major [18]): 91%; Activity (Leishmania major [19]): 88%; Activity (Leishmania major [20]): 91%; CC50 at 72 h [8]: 244 µM; selectivity ratio [9]: 359
CCCCOc1ccc2cc(C(=O)NCCCCCCn3cc(CSC4=NC(=O)CS4)nn3)c(=O)oc2c1	2.35 µM	3.86 µM	3	Activity (Leishmania major [10]): 48%; Activity (Leishmania major [11]): 30%
CCCCOc1ccc2cc(/C(C)=N/OCCCCCCn3cc(CSC4=NC(=O)CS4)nn3)c(=O)oc2c1	3.73 µM	4.84 µM	2	
O=C(N/N=C1\C(=O)N(CC(O)COc2cc(=O)oc3ccccc23)c2ccccc21)c1ccncc1 (stereo not given)				IC50 (Leishmania tropica [21]): 0.1 µM; IC50 (Leishmania tropica [22]): 0.87 µM
CCCCOc1ccc2cc(C(=O)NCCCCCCn3cc(CN4CCCCC4)nn3)c(=O)oc2c1	1.21 µM	1.83 µM	7	
CCCCOc1ccc2cc(/C(C)=N/OCCCCCCn3cc(CN4C(=O)CSC4=O)nn3)c(=O)oc2c1	2.83 µM	3.9 µM	3	
CCCCOc1ccc2cc(/C(C)=N/OCCCCCCn3cc(CN4CCOCC4)nn3)c(=O)oc2c1	4.63 µM	5.29 µM	2	
